Experimental data taken from ChEMBL document CHEMBL5338827, “Evolution and Discovery of Matrine Derivatives as a New Class of Anti-Hepatic Fibrosis Agents Targeting Ewing Sarcoma Breakpoint Region 1 (EWSR1)” (J Med Chem, 2023).
Activity calls are given as the source filed them.

Experiments:
Rattus norvegicus [1] = assay: Anti-hepatic fibrosis activity in bile duct ligation rat model assessed as reduction in ALP level at 100 mg/kg, po administered for 14 days; assay type: functional; details: time 14 day
[2] = biological target: Collagen alpha-1(I) chain (Homo sapiens, UniProt P02452); assay: Inhibition of COL1A1 (unknown origin) expressed in human LX2 cells at 40 uM measured for 24 hrs relative to control; assay type: cell-based
Chain of Collagen alpha-1(I) chain (P02452 whole entry): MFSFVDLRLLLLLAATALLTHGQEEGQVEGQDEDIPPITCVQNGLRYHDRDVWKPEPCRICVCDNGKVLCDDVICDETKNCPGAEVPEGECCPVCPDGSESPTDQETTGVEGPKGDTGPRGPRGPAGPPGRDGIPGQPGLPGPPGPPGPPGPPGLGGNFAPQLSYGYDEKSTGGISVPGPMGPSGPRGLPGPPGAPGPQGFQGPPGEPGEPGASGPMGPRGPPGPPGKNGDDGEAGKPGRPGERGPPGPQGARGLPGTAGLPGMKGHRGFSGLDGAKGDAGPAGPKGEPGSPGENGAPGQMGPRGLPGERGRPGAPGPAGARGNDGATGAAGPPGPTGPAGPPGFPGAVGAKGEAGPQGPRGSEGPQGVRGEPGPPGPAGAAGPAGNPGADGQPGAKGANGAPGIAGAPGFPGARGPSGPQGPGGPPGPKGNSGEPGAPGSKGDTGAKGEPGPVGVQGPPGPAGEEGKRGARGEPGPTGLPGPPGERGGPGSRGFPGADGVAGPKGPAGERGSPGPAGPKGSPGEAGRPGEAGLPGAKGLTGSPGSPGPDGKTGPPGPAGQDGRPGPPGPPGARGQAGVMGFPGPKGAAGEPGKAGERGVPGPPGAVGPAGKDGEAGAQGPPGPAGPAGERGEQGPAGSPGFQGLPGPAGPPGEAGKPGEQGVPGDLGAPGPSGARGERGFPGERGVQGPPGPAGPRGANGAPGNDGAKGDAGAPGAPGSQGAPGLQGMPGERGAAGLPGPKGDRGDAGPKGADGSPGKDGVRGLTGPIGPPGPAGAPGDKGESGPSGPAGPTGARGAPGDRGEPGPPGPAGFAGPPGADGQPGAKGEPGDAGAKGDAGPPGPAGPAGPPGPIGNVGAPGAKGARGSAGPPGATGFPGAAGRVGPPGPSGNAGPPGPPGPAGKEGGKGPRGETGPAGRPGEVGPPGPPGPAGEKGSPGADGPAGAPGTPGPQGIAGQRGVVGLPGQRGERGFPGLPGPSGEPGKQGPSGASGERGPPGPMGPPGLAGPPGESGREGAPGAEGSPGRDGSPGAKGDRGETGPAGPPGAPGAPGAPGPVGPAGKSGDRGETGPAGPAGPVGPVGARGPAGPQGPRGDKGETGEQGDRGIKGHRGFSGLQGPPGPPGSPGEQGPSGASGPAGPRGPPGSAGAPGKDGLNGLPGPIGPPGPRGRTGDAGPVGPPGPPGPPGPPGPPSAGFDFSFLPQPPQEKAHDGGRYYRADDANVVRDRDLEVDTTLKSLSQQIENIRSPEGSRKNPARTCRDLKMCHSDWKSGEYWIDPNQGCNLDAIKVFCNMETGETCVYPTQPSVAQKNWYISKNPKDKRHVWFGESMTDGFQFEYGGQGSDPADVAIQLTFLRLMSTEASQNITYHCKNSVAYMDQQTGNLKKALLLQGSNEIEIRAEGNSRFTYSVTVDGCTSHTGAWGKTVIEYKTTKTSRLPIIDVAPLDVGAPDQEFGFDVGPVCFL

LX-2 [3] = assay: Anti-hepatic fibrosis activity in human LX2 cells assessed as inhibition of TGF-beta1 induced MMP-2 mRNA expression at 20 uM incubated for 24 hrs by qRT-PCR analysis; assay type: functional, cell-based
LX-2 [4] = assay: Anti-hepatic fibrosis activity in human LX2 cells assessed as inhibition of TGF-beta1 induced CTGF mRNA expression at 20 uM incubated for 24 hrs by qRT-PCR analysis; assay type: functional, cell-based
LX-2 [5] = assay: Anti-hepatic fibrosis activity in human LX2 cells assessed as inhibition of TGFbeta1-induced MMP-2 protein expression at 20 uM incubated for 24 hrs by western blot analysis; assay type: functional, cell-based
LX-2 [6] = assay: Anti-fibrosis effect in human LX2 cells assessed as reduction in TGFbeta1-induced MMP-2 protein expression at 10 to 20 uM measured for 24 hrs; assay type: functional, cell-based; details: dose 10-20 µM
LX-2 [7] = assay: Anti-fibrosis effect in human LX2 cells assessed as reduction in TGFbeta1-induced COL1A1 protein expression at 10 to 20 uM measured for 24 hrs; assay type: functional, cell-based; details: dose 10-20 µM
LX-2 [8] = assay: Anti-fibrosis effect in human LX2 cells assessed as reduction in TGFbeta1-induced fibronectin protein expression at 10 to 20 uM measured for 24 hrs; assay type: functional, cell-based; details: dose 10-20 µM
LX-2 [9] = assay: Anti-fibrosis effect in human LX2 cells assessed as reduction in TGFbeta1-induced alpha-SMA mRNA expression at 10 to 20 uM measured for 24 hrs; assay type: functional, cell-based; details: dose 10-20 µM
LX-2 [10] = assay: Anti-fibrosis effect in human LX2 cells assessed as reduction in TGFbeta1-induced COL1A1 mRNA expression at 10 to 20 uM measured for 24 hrs; assay type: functional, cell-based; details: dose 10-20 µM
HSC-T6 = assay: Anti-fibrosis effect in HSC-T6 cells assessed as reduction in TGFbeta1-induced COL1A1 protein expression measured for 24 hrs; assay type: functional, cell-based; details: Rattus norvegicus, dose 2.5-20 µM
Rattus norvegicus [11] = assay: Anti-hepatic fibrosis activity in bile duct ligation rat model assessed as reduction in parenchyma necrosis at 100 mg/kg, po administered for 14 days by hematoxylin and eosin staining based analysis; assay type: functional, organism-based; details: time 14.0 day
Rattus norvegicus [12] = assay: Anti-hepatic fibrosis activity in bile duct ligation rat model assessed as reduction collagen accumulation at 100 mg/kg, po administered for 14 days; assay type: functional, organism-based; details: time 14.0 day
Rattus norvegicus [13] = assay: Anti-hepatic fibrosis activity in bile duct ligation rat model assessed as reduction in ACTA2 mRNA expression at 100 mg/kg, po administered for 14 days by qRT-PCR analysis; assay type: functional, organism-based; details: time 14.0 day
Rattus norvegicus [14] = assay: Anti-hepatic fibrosis activity in bile duct ligation rat model assessed as reduction in TGFB1 mRNA expression at 100 mg/kg, po administered for 14 days by qRT-PCR analysis; assay type: functional, organism-based; details: time 14.0 day
Mus musculus [15] = assay: Anti-hepatic fibrosis activity in MDR2 knockout liver injury mouse model assessed as reduction in COL1A1 protein expression at 100 mg/kg, po administered once a day for 4 weeks by Western blot analysis; assay type: functional, organism-based
Rattus norvegicus [16] = assay: Anti-hepatic fibrosis activity in bile duct ligation rat model assessed as reduction in CoL1A1 protein expression at 100 mg/kg, po administered for 14 days by Western blot analysis; assay type: functional, organism-based; details: time 14.0 day
Rattus norvegicus [17] = assay: Anti-hepatic fibrosis activity in bile duct ligation rat model assessed as reduction in TGFB1 protein expression at 100 mg/kg, po administered for 14 days by Western blot analysis; assay type: functional, organism-based; details: time 14.0 day
Rattus norvegicus [18] = assay: Anti-hepatic fibrosis activity in bile duct ligation rat model assessed as reduction in CTGF protein expression at 100 mg/kg, po administered for 14 days by Western blot analysis; assay type: functional, organism-based; details: time 14.0 day
Rattus norvegicus [19] = assay: Anti-hepatic fibrosis activity in bile duct ligation rat model assessed as reduction in alpha-SMA positive cells in liver at 100 mg/kg, po administered for 14 days by Immunofluorescence analysis; assay type: functional, organism-based; details: time 14.0 day
Rattus norvegicus [20] = assay: Anti-hepatic fibrosis activity in bile duct ligation rat model assessed as reduction in LRAT positive cells in liver at 100 mg/kg, po administered for 14 days by Immunofluorescence analysis; assay type: functional, organism-based; details: time 14.0 day
Mus musculus [21] = assay: Anti-hepatic fibrosis activity in MDR2 knockout liver injury mouse model assessed as reduction in serum TBA level at 100 mg/kg, po administered once a day for 4 weeks (reference value: 59.04+/-22.38 micromol/L); assay type: functional
Mus musculus [22] = assay: Anti-hepatic fibrosis activity in MDR2 knockout liver injury mouse model assessed as reduction in COL1A1 mRNA expression at 100 mg/kg, po administered once a day for 4 weeks by qRT-PCR analysis; assay type: functional, organism-based
Mus musculus [23] = assay: Anti-hepatic fibrosis activity in MDR2 knockout liver injury mouse model assessed as reduction in TGFB1 mRNA expression at 100 mg/kg, po administered once a day for 4 weeks by qRT-PCR analysis; assay type: functional, organism-based
Mus musculus [24] = assay: Anti-hepatic fibrosis activity in MDR2 knockout liver injury mouse model assessed as reduction in MMP2 mRNA expression at 100 mg/kg, po administered once a day for 4 weeks by qRT-PCR analysis; assay type: functional, organism-based
Mus musculus [25] = assay: Anti-hepatic fibrosis activity in MDR2 knockout liver injury mouse model assessed as reduction in TIMP1 mRNA expression at 100 mg/kg, po administered once a day for 4 weeks by qRT-PCR analysis; assay type: functional, organism-based
[26] = biological target: T1, RNA-binding protein EWS (Homo sapiens) (UniProt Q01844); assay: Induction of EWSR1 degradation in human LX2 cells at 20 uM measured upto 32 hrs in presence of cycloheximide; assay type: cell-based
T1 sequence (whole entry): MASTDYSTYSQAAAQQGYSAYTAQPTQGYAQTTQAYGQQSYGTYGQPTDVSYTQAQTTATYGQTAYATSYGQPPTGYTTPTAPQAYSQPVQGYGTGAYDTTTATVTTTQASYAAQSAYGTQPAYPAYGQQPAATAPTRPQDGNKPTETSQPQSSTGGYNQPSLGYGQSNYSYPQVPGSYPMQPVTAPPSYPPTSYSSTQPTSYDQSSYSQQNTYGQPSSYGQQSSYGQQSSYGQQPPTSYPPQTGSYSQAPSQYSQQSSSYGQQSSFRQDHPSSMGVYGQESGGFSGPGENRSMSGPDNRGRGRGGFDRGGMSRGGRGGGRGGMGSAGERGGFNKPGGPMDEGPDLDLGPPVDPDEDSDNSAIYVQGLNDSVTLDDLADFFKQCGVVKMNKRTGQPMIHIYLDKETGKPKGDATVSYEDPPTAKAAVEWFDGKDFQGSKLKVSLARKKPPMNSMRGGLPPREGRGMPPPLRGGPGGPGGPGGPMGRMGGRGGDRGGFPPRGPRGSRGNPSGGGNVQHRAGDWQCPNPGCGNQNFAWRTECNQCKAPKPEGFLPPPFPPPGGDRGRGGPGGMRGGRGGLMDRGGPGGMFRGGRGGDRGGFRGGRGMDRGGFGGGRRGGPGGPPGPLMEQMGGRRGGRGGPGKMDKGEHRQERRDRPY

LX-2 [27] = assay: Downregulation of CTGF mRNA level in human LX2 cells; assay type: functional, cell-based

CCCC[C@@H]1[C@H]2CCCN3CCC[C@@H](CN1C(=O)Nc1c(CC)cccc1CC)[C@@H]23
98.8%: inhibition [2]
active: Activity (LX-2 [3]) | Activity (LX-2 [4]) | Activity (LX-2 [5]) | Activity (LX-2 [6]) | Activity (LX-2 [7]) | Activity (LX-2 [8]) | Activity (LX-2 [9]) | Activity (LX-2 [10]) | Activity (HSC-T6) Dose-Dependent Effect | Activity (Rattus norvegicus [11]) | Activity (Rattus norvegicus [12]) | Activity (Rattus norvegicus [13]) | Activity (Rattus norvegicus [14]) | Activity (Mus musculus [15]) | Activity (Rattus norvegicus [16]) | Activity (Rattus norvegicus [17]) | Activity (Rattus norvegicus [18]) | Activity (Rattus norvegicus [19]) | Activity (Rattus norvegicus [20]) | Activity (Mus musculus [22]) | Activity (Mus musculus [23]) | Activity (Mus musculus [24]) | Activity (Mus musculus [25]) | Activity (LX-2 [27])
375 U/L: Activity (Rattus norvegicus [1])
inactive: Activity [26]
29.18 µmol/L: Activity (Mus musculus [21])
